Measured values reported in patent publication US12584903B2, “Cellular-based method for determining the potency of defibrotide” (GENTIUM S.R.L., priority 2014, dated 2026).

Columns and labels:
SK-HEP-1 cells [1] = assay: Cell protection assay: viability of SK-HEP-1 cells incubated with fludarabine, CCK-8 assay, 4-parameter logistic potency analysis; settings: fludarabine 10 μg/ml, 72 hours
Procedure: The human liver sinusoidal endothelial cell line SK-HEP-1 was obtained from the American Type Culture Collection (ATCC) and cultured in complete EMEM medium in a humidified cell incubator containing 5% CO2 at 37° C. using gelatin-coated tissue culture flasks. The cells were sub-cultured by trypsin mediated detachment every 2-3 days following the instructions provided by the ATCC. Cells were serially transferred into culture flasks when the culture was 80-90% confluent and used for the protection assay between passages +3 to +10. That is, 3 to 10 passages beyond the characterised passage number of the cells received from the ATCC.
A suspension of SK-HEP-1 for use in the cell protection assay was prepared and counted. […] Cells were counted using a Neubauer counting chamber in the presence of trypan blue to assess the percent viability of the cultures.
Fifty μl of the cell suspensions, or medium alone for blanks, prepared at the concentrations described above was placed in wells of a poly-D-lysine coated 96-well microtiter plate. […] Following addition of the solution to the wells, the plates were returned to the incubator and cell viability was assessed after 24, 48 or 72 hr. […]
After the specified period of incubation, cell viability in each well was measured using the CCK-8 cell counting kit (Sigma Aldrich, Milan, Italy) following the manufacturer's instructions. […]

HMEC-1 cells = assay: Cell protection assay: viability of HMEC-1 cells incubated with fludarabine, MTT assay; format: cell-based, human; settings: 72 hours
Procedure: The MTT assay is based on the cleavage of tetrazolium salts by mitochondrial dehydrogenase in viable cells leading to the production of an insoluble formazan dye. MTT dye, 10 μl of a 2 mg/ml solution in D-PBS, was added to each well and then the plates were incubated for 3 hours. Plates were then centrifuged and each well aspirated. The dye was solubilised with 200 μl of a mixture DMSO/Ethanol (1:1) and absorbance in the wells was read at 570-590 nm on a microplate reader. A blank well containing only media and cytotoxic drug (fludarabine or doxorubicin) was also run as a control in all experiments.
HMEC-1 cells were cultivated according to the above mentioned procedure. A cell density of 500,000 cells/ml was used for the assay. […] Defibrotide was added to the microplate well at a concentration of 100, 10 or 1 μg/ml. Four replicates of each condition were performed. The viability of the HMEC cells was assessed after 72 hours with the MTT assay described above.
HMEC-1 cells were cultivated according to the above mentioned procedure. A cell density of about 500,000 cells/ml was used for the experiment. The cytotoxic agent was fludarabine at a concentration of 50 μg/ml. Synthetic oligonucleotides (Adenine-Cytosine (AC) of about 16 kDa or Adenine-Cytosine-Guanine-Thymine (ACGT) of about 17 kDa) or defibrotide were added to each well at varying concentrations. Specifically, the AC oligonucleotides were added to each well at a concentration of 1, 10, 100 or […], whereas the ACGT oligonucleotides were added to each well at a concentration of 12.5, 25 or 50 μg/ml. […] Each treatment condition was performed in triplicate. The viability was assessed with the MTT assay after 24, 48 and 72 hours.

SK-HEP-1 cells [2] = assay: Cell protection assay: viability of SK-HEP-1 cells incubated with doxorubicin, CCK-8 assay; format: cell-based, human; settings: doxorubicin 0.1 μg/ml, defibrotide 50 μg/ml or greater, 72 hours
Procedure: The cytotoxic agent was doxorubicin at a concentration of 0.1 μg/ml. Defibrotide was added to the microplate well at a concentration of 100, 50, 20, 10, 5 or 1 μg/ml. Three replicates of each condition were performed. The viability was assessed after 72 hours with the CCK-8 assay kit as described above. […] (FIG. 2).

## N[C@@H](CCC(=O)N[C@@H](CS)C(=O)NCC(=O)O)C(=O)O [glutathione, Glutathione]
SK-HEP-1 cells [1]; ACGT or glutathione 1.25-80 μg/ml, tPA 10-320 IU/ml
  protection from fludarabine-induced cytotoxicity (in words): No protection

## defibrotide
HMEC-1 cells; fludarabine 10 μg/ml, defibrotide 100 μg/ml
  protection effect against fludarabine-induced cytotoxicity: more than 50%
HMEC-1 cells; fludarabine 10 μg/ml, defibrotide 100, 10 or 1 μg/ml
  protection from fludarabine-induced cytotoxicity (in words): protected the cells from fludarabine-induced cytotoxicity in a dose-dependent manner
HMEC-1 cells; fludarabine 50 μg/ml, AC 1-500 μg/ml, ACGT 12.5-50 μg/ml, defibrotide 5-100 μg/ml
  protection from fludarabine-induced cytotoxicity (in words): dose-dependent protection
SK-HEP-1 cells [2]
  protection from doxorubicin-induced cytotoxicity (in words): significantly protected
SK-HEP-1 cells [1]; defibrotide 40 μg/ml or greater
  cells surviving: greater than 80%
